Test [1] has as its target T1, human rec ACSS2 (Homo sapiens, UniProt Q9NR19).
T1 construct: myc (C); purchased Origene
Put plainly: Biochemical activity ACSS2 assay (AMP-Glo). The conditions noted are these: human recombinant ACSS2, AMP-Glo, 180 min at 37° C. As to the method: The biochemical activity assay for ACSS2 is based on the detection of released AMP by AMP-Glo ™ Assay kit (Promega, Madison). The assay is run in three steps: the enzymatic reaction in which human rec ACSS2 activates acetate with ATP and Coenzyme A as cosubstrates to acetyI-coA thereby releasing AMP and the detection reaction of AMP by AMP Glo assay in which after the destruction of the residual ATP with AMP Glo reagent 1 produced AMP is converted to ATP that is measured in a luciferase assay system (detection reagent). The ACSS2 activity correlates with the detected luminescence signal.
The assay was performed in Perkin Elmer 384well white Proxiplates in a total volume of 8 µl.
1 nM (fc) C-term myc tagged ACSS2 (human, recombinant, Origene, Rockville, US) and a mixture of 100 µM (fc) ATP, 100 µM (fc) Coenzyme A and 500 µM (fc) sodium acetate were incubated in a total volume of 5 µl (50 mM Hepes, 1 mM Mg-chloride, 150 mM NaCl, 1 mM DTT, 0.01 % (w/v) BSA, 0.3 % DMSO, pH 7.5) in the absence or presence of the test compound (10 dilution concentrations, start conc 30 µM) for 180 min at 37° C. The reaction was stopped and residual ATP destroyed by the addition of 1 µl AMP Glo reagent solution (Promega, Madison, US). After 1 h incubation at room temperature 2 µl of AMP Glo detection reagent was added and the assay was incubated for 0.75 hr at room temperature. The luminescence signal was measured with an Envision multimode reader (Perkin Elmer LAS Germany GmbH) at 700 nm in luminescence mode. The full value used was the inhibitor-free reaction. The pharmacological zero value was generated by addition of ACSS2 inhibitor (Ac-CoA Synthase Inhibitor - CAS 508186-14-9 -Calbiochem) in a final concentration of 5 µM. The inhibitory values (IC50) were determined using the program Assay Analyzer® from GeneData.

For test [2], the target named is T2, ACSS2 (Homo sapiens, UniProt Q9NR19).
T2 construct: endogenous fatty acid synthesis activity in the human HCT-15 cancer cell line; endogenous in cells; host or cells: HCT-15
T2 sequence (Q9NR19 whole entry): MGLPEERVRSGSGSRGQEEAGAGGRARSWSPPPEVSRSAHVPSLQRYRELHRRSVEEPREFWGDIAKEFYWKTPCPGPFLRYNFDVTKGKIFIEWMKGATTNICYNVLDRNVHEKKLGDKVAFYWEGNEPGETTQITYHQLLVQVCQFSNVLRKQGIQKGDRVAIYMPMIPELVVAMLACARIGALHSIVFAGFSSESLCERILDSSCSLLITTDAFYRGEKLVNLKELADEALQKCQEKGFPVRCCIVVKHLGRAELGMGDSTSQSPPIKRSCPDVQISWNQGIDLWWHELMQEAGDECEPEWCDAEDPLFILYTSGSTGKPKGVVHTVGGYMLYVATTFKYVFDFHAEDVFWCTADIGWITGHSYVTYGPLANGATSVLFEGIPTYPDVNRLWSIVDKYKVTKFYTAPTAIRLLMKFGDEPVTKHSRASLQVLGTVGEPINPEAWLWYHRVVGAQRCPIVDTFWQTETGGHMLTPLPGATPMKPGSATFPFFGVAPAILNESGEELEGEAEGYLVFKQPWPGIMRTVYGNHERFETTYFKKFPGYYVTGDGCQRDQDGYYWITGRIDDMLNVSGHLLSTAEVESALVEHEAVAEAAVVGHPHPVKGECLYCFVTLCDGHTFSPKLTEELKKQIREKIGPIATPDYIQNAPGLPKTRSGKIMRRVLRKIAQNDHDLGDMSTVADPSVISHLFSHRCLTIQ
Kind of test: Cellular assay of 14C acetate incorporation into histones (IC50 ACSS2 cellular histone). Format: cell-based. The conditions noted are these: HCT-15 cells. On the procedure: This protocol describes a cellular assay capable to quantify endogenous histone acetylation activity in the human HCT-15 cancer cell line following the incorporation of extracellularly administered radiolabeled ^14C acetate with a scintillation based read out on acid extracted histones.
HCT-15 cells are trypsinized, washed and suspended in DMEM culture medium supplemented with penicillin/streptomycin (100 U/mL), sodium pyruvate (1 mM), and 10% FBS
Compounds serial dilutions are prepared in 96-well V-bottom microplate from 10 mM stock solutions in DMSO. From these dilutions 0.5 µl are transferred to a fresh plate including pure DMSO as negative control. The dilutions are prepared such, that the final concentration in the assay is 1/400 of the concentration in the serial dilution. The final DMSO concentration in the assay is 0.25 %.
The cell suspension is seeded at densities of 2x10^5 cells per 170 µl into individual wells of a 96 well plate each containing 0.5 µl aliquots of compound serial dilutions and are kept for 1h in a cell incubator. To each well 30 µL of a mixture containing 0.5 mCi/mL of ^14C-acetate with full medium are added. Then, the wells are incubated for 3 hrs in the cell incubator.
Further steps of the procedure should be conducted on ice or instrumentations precooled to 4° C. Cells are sedimented in the 96-well V-bottom microplate by centrifugation (Eppendorf 5804 R) at 1200 rpm for 5 min. The supernatant is removed and the cells are washed twice with 200µL of PBS-NaB (5 mM sodium butyrate) buffer by iterative resuspension and centrifugation. Finally, the cells are resuspended in 50 µL of TEB (PBS-NaB + 0.5 % Triton X-100) and left on ice for 10 minutes. After centrifugation at 2300 rpm for 10 minutes at 4° C. the supernatant is removed, the remaining pellet is suspended in 50 µL of 0.2 M HCl and incubated over night at 4° C. After incubation the well plate is shaken for 2 minutes in a MTP plate shaker set to 1200 rpm and then centrifuged at 3700 rpm for 10 mins. The lysate is carefully aspirated (~43 µL) and transferred into a white MTP plate (Greiner bio-one 65509). 90 µL of Ultima Gold XR scintillation cocktail are added and the plates are sealed with a transparent cover tape before mixing vigorously using plate shaker set to 1200 rpm. Radioactivity from ^14C incorporation in the wells is measured as CPM count in a MicroBeta Trilux luminescence counter.

T1 sequence (Q9NR19 whole entry): as above

`CCn1cnc(NC(=O)c2cc3c(nc2C)nc(C(O)(c2ccccc2F)c2ccc(OC(F)F)cc2F)n3CC)n1` (racemic) [Compound 97, 2-{[4-(difluoromethoxy)-2-fluorophenyl](2-fluorophenyl)hydroxymethyl}-1-ethyl-N-(1-ethyl-1H-1,2,4-triazol-3-yl)-5-methyl-1H-imidazo[4,5-b]pyridine-6-carboxamide]: the IC50 in test [1] was in the range of 1 to 10 nM; in test [2], 10 to 100 nM.
Regarding `CCc1c(C(O)(c2ccccc2)c2ccccn2)nc2cc(OC)c(C(=O)Nc3ncn(CC)n3)cn12` (single isomer, unassigned) [Compound 17, 3-ethyl-N-(1-ethyl-1,2,4-triazol-3-yl)-2-[hydroxy-phenyl-(2-pyridyl)methyl]-7-methoxy-imidazo[1,2-a]pyridine-6-carboxamide], the IC50 in test [1] and in test [2] was 10 to 100 nM in each case.
`CCn1cc(NC(=O)c2cc3c(nc2Cl)nc(C(O)(c2ccccc2)c2ccc(OC(F)F)cc2)n3CC)cn1` (racemic) [Compound 84, 5-chloro-2-{[4-(difluoromethoxy)phenyl](hydroxy)phenylmethyl}-1-ethyl-N-(1-ethyl-1H-pyrazol-4-yl)-1H-imidazo[4,5-b]pyridine-6-carboxamide]: the IC50 in test [1] and in test [2] was 10 to 100 nM each time.
For the molecule `CCc1nc(CNC(=O)c2cc3c(nc2OC)nc(C(O)(c2ccccc2)c2ccccc2)n3CC)no1` [Compound 63, 1-ethyl-N-[(5-ethyl-1,2,4-oxadiazol-3-yl)methyl]-2-(hydroxydiphenylmethyl)-5-methoxy-1H-imidazo[4,5-b]pyridine-6-carboxamide], the IC50 in test [1] was in the range of 100 to 10000 nM; in test [2] it was 10 to 100 nM.
In the same order, the values of `CCn1cnc(NC(=O)c2cc3c(nc2OC)nc(C(O)(c2ccccc2)c2ccccn2)n3CC)n1` (single isomer, unassigned) [Compound 54, 1-ethyl-N-(1-ethyl-1H-1,2,4-triazol-3-yl)-2-[hydroxy(phenyl)(pyridin-2-yl)methyl]-5-methoxy-1H-imidazo[4,5-b]pyridine-6-carboxamide] are 10 to 100 nM and 10 to 100 nM.
Consider `CCn1cc(NC(=O)c2cc3c(nc2Cl)nc(C(O)(c2ccccc2F)c2ccc(OC(F)F)cc2F)n3CC)cn1` (racemic) [Compound 93, 5-chloro-2-{[4-(difluoromethoxy)-2-fluorophenyl](2-fluorophenyl)hydroxymethyl}-1-ethyl-N-(1-ethyl-1H-pyrazol-4-yl)-1H-imidazo[4,5-b]pyridine-6-carboxamide], for which the IC50 is 1 to 10 nM in test [1] and 10 to 100 nM in test [2].
The matching figures for `CCn1cnc(NC(=O)c2cc3c(nc2OC)nc(C(O)(c2ccccc2F)c2ccc(OC(F)F)cc2F)n3CC)n1` (single isomer, unassigned) [Compound 71]: 0.01 to 1 nM and 0.01 to 1 nM.
Turning to `CCn1cnc(NC(=O)c2cc3c(nc2OC)nc(C(O)(c2ccccc2)c2ccccc2C)n3CC)n1` (racemic) [Compound 56, 1-ethyl-N-(1-ethyl-1H-1,2,4-triazol-3-yl)-2-[hydroxy(2-methylphenyl)phenylmethyl]-5-methoxy-1H-imidazo[4,5-b]pyridine-6-carboxamide], in test [1], the IC50 fell in the range of 1 to 10 nM.
On the same count and under the same terms, as for `CCn1cnc(NC(=O)c2cc3c(nc2OC)nc(C(O)(c2ccccc2)c2ccn(C)n2)n3CC)n1` (racemic) [Compound 40, 1-ethyl-N-(1-ethyl-1H-1,2,4-triazol-3-yl)-2-[hydroxy(1-methyl-1H-pyrazol-3-yl)phenylmethyl]-5-methoxy-1 H-imidazo[4,5-b]pyridine-6-carboxamide], the figure is 10 to 100 nM; as for `CCc1c(C(O)(c2ccccc2)c2ccc(C)s2)nc2cc(OC)c(C(=O)Nc3ncn(CC)n3)cn12` (single isomer, unassigned) [Compound 27, 3-Ethyl-2-[hydroxy-(5-methyl-thiophen-2-yl)-phenyl-methyl]-7-methoxy-imidazo[1,2-a]pyridine-6-carboxylic acid (1-ethyl-1H-[1,2,4]triazol-3-yl)-amide], 1 to 10 nM.
As to `CCn1cnc(NC(=O)c2cc3c(nc2OC)nc(C(O)(c2ccccc2)c2ccccc2)n3C)n1` [Compound 36, N-(1-ethyl-1H-1,2,4-triazol-3-yl)-2-(hydroxydiphenylmethyl)-5-methoxy-1-methyl-1H-imidazo[4,5-b]pyridine-6-carboxamide], in test [1], the IC50 lay in the range of 0.01 to 1 nM.
As for `CCn1cnc(NC(=O)c2cc3c(nc2OC)nc(C(O)(c2ccccc2)c2ccc4ccccc4n2)n3CC)n1` (racemic) [Compound 35, 1-ethyl-N-(1-ethyl-1H-1,2,4-triazol-3-yl)-2-[hydroxy(phenyl)(quinolin-2-yl)methyl]-5-methoxy-1H-imidazo[4,5-b]pyridine-6-carboxamide], the IC50 in test [1] lay within 1 to 10 nM.
On to `[2H]c1c([2H])c([2H])c(C(O)(c2c([2H])c([2H])c([2H])c([2H])c2[2H])c2nc3nc(OC)c(C(=O)Nc4ncn(CC)n4)cc3n2CC)c([2H])c1[2H]` [Compound 37, 1-ethyl-N-(1-ethyl-1H-1,2,4-triazol-3-yl)-2-{hydroxybis[(2,3,4,5,6-^2H5)phenyl]methyl}-5-methoxy-1 H-imidazo[4,5-b]pyridine-6-carboxamide], for which the IC50 in test [1] lay within 0.01 to 1 nM.
Still for that read-out and setting: as for `CCn1cnc(NC(=O)c2cc3c(nc2OC)nc(C(O)(c2ccsc2)c2ccsc2)n3CC)n1` [Compound 38, 1-ethyl-N-(1-ethyl-1H-1,2,4-triazol-3-yl)-2-[hydroxybis(thiophen-3-yl)methyl]-5-methoxy-1H-imidazo[4,5-b]pyridine-6-carboxamide], the figure is 1 to 10 nM.
With `CCc1cc2nc(C(O)(c3ccccc3)c3ccccc3)c(CC)n2cc1C(=O)Nc1ncn(CC)n1` (racemic) [Compound 33, 3,7-diethyl-N-(1-ethyl-1H-1,2,4-triazol-3-yl)-2-(hydroxydiphenylmethyl)imidazo[1,2-a]pyridine-6-carboxamide], in test [1], the IC50 lay within 10 to 100 nM.
As to `CCn1cnc(NC(=O)c2cc3c(nc2OC)nc(C(O)(c2ccccc2)c2ccsc2)n3CC)n1` (racemic) [Compound 39, 1-ethyl-N-(1-ethyl-1H-1,2,4-triazol-3-yl)-2-[hydroxy(phenyl)(thiophen-3-yl)methyl]-5-methoxy-1H-imidazo[4,5-b]pyridine-6-carboxamide], the IC50 in test [1] was in the range of 1 to 10 nM.
Regarding `CCc1c(C(O)(c2ccccc2)c2nccs2)nc2cc(OC)c(C(=O)Nc3ncn(CC)n3)cn12` (racemic) [Compound 32, 3-ethyl-N-(1-ethyl-1H-1,2,4-triazol-3-yl)-2-[hydroxy(phenyl)(1,3-thiazol-2-yl)methyl]-7-methoxyimidazo[1,2-a]pyridine-6-carboxamide], the IC50 in test [1] fell in the range of 10 to 100 nM.
Consider `CCc1c(C(O)(c2ccccc2)c2ccc(C)s2)nc2cc(OC)c(C(=O)Nc3ncn(CC)n3)cn12` (single isomer, unassigned) [Compound 26, 3-Ethyl-2-[hydroxy-(5-methyl-thiophen-2-yl)-phenyl-methyl]-7-methoxy-imidazo[1,2-a]pyridine-6-carboxylic acid (1-ethyl-1H-[1,2,4]triazol-3-yl)-amide], for which the IC50 in test [1] lay in the range of 100 to 10000 nM.

As usually defined, the IC50 is the concentration that inhibits the measured activity by half.

For the origin of these results see patent US20230271956A1, “AMIDE DERIVATIVES” (Merck Patent GmbH, priority 2020, published 2023).
